# Results published in publication PMC10797628.
# Tests used:
# human 5-HT1D receptor [1] = target: T1, human 5-HT1D receptor (Homo sapiens, UniProt P28221); test: cAMP accumulation (LANCE Ultra TR-FRET) in HEK293T cells, WT 5-HT1D; assay type: cell-based; settings: for 5-HT1D EMAX (%): WT receptor; for 5-HT1D EMAX (%) / Emax: normalized to basal (0%) and 10 μM 5-CT (100%); for EC50: 5-HT1D pEC50, WT receptor, cAMP accumulation, HEKt cells, mean ± SD; for Emax: HEK-293T, read-out: 5-HT1D EMAX (%), WT receptor
# T1 construct: host or cells: HEK293T
# Procedure: (§1) Briefly, cells transfected with the desired receptor construct and compounds were incubated in the dark for 90 min at 37 °C. After incubation, cAMP detection reagents were added, and TR-FRET was used to quantify the cAMP produced.
# (§2) The functional activity of compounds was determined by stimulating cells expressing the desired receptor with FSK and test compound in parallel with 12 known concentrations of cAMP. The known concentrations of cAMP were used to create a standard curve for each experiment that was used to interpolate the unknown values of cAMP in wells with test compounds. […] The EC50 and EMAX values were determined using the “dose response – log[agonist] vs response (three parameter)” nonlinear regression model in Prism and transformed to pEC50 values, reported as mean ± SD.
# (§3) Summary of functional assay conditions at various 5-HT1 receptor point mutation constructs.
# human 5-HT1B receptor [2] = target: T2, human 5-HT1B receptor (Homo sapiens, UniProt P28222); test: cAMP accumulation (LANCE Ultra TR-FRET) in HEK293T cells, WT 5-HT1B; assay type: cell-based; settings: for 5-HT1B EMAX (%) / Emax: normalized to basal (0%) and 10 μM 5-CT (100%); for EC50: 5-HT1B pEC50, WT receptor; for Emax: HEK-293T, read-out: 5-HT1B EMAX (%), WT receptor
# T2 construct: host or cells: HEK293T
# Procedure: as §1, §2, §3
# S5.42A 5-HT1B receptor = S5.42A 5-HT1B receptor (Homo sapiens, UniProt P28222, S212A); test: cAMP accumulation in HEK293T cells, S5.42A 5-HT1B; assay type: cell-based; design: host or cells: HEK293T; settings: point-mutated receptor, 3 independent experiments
# Procedure: as §1, §2
# Cell Type Receptor Cell Density [Forskolin] Incubation time
# as §3
# human 5-HT1A receptor [3] = target: T3, human 5-HT1A receptor (Homo sapiens, UniProt P08908); test: cAMP accumulation (LANCE Ultra TR-FRET) in HEK293T cells, WT 5-HT1A; assay type: cell-based; settings: for EC50: 5-HT1A pEC50, WT receptor, cAMP accumulation, HEKt cells, mean ± SD; for Emax: HEK-293T, read-out: 5-HT1A EMAX (%), WT receptor
# T3 construct: host or cells: HEK293T
# T3 sequence (P08908 1-422): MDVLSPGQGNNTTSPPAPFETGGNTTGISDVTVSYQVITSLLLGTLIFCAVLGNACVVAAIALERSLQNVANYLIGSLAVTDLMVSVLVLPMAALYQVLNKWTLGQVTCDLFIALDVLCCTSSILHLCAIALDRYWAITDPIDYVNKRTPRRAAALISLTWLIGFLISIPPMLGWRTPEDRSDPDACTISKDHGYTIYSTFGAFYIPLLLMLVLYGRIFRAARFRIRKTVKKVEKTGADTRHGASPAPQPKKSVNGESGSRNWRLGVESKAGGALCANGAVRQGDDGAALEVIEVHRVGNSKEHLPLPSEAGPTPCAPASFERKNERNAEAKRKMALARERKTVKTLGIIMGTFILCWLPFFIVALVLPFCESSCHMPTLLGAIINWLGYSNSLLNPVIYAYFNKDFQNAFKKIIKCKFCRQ
# Procedure: as §1, §2, §3
# human 5-HT1B receptor [4] = target: T2, human 5-HT1B receptor; test: Radioligand binding (saturation and competition), WT 5-HT1B; settings: Affinity (pKi ± SD) 5-HT1B, WT receptor; [^3H]5-CT competition; mean ± SD
# human 5-HT1D receptor [5] = target: T1, human 5-HT1D receptor; test: Radioligand binding (saturation and competition), WT 5-HT1D; settings: Affinity (pKi ± SD) 5-HT1D, WT receptor; [^3H]5-CT competition; mean ± SD
# human 5-HT1A receptor [6] = target: T3, human 5-HT1A receptor; test: Radioligand binding (saturation and competition), WT 5-HT1A; settings: WT receptor, [^3H]5-CT competition, mean ± SD; for Ki: Affinity (pKi ± SD) 5-HT1A
# human 5-HT1F receptor = target: T4, human 5-HT1F receptor (Homo sapiens, UniProt P30939); test: Radioligand binding (saturation and competition), WT 5-HT1F
# T4 construct: host or cells: HEK293T
# T4 sequence (P30939 1-366): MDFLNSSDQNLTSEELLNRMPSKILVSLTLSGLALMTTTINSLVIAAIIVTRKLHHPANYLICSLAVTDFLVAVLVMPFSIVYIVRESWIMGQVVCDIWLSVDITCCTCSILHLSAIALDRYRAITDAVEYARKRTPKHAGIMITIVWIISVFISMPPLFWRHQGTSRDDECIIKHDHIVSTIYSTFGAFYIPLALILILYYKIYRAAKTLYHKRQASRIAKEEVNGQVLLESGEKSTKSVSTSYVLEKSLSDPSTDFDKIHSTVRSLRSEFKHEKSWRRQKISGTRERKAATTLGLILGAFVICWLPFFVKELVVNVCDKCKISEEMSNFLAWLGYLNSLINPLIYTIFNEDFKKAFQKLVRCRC
# [7] = normalized to basal (0%) and 10 μM 5-CT (100%)
# [8] = cAMP accumulation, HEKt cells, mean ± SD
# T1 sequence (P28221 whole entry): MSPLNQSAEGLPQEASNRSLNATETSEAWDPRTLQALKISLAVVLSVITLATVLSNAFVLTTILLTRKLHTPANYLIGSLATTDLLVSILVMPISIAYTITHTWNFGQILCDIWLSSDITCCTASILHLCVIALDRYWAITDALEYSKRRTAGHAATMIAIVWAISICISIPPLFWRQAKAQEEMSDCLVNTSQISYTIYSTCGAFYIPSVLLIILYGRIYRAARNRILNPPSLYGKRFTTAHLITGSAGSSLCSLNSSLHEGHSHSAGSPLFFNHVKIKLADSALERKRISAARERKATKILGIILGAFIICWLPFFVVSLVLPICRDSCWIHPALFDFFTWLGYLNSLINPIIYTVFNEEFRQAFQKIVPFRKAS
# T2 sequence (P28222 whole entry): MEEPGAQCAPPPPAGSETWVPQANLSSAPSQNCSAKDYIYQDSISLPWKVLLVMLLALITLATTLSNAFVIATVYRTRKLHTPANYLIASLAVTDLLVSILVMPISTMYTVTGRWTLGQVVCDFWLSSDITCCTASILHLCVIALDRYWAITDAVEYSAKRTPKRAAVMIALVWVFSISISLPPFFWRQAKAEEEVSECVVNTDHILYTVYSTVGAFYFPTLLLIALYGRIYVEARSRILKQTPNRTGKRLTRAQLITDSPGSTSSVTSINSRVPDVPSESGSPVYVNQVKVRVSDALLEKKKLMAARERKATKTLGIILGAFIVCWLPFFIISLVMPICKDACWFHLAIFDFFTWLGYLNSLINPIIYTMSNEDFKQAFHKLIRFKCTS
# Chain of S5.42A 5-HT1B receptor (P28222 whole entry S212A): as the sequence (P28222 whole entry) above, with S212A counted along it
Structure (SMILES),5-HT1D EMAX (%) (human 5-HT1D receptor [1]),"5-HT1B pEC50 (human 5-HT1B receptor [2]; WT receptor, cAMP accumulation, HEKt cells, mean ± SD)",5-HT1B EMAX (%) (human 5-HT1B receptor [2]; WT receptor),change in potency (qualitative) (S5.42A 5-HT1B receptor),EC50 (human 5-HT1A receptor [3]) [nM],Emax (human 5-HT1A receptor [3]; [7]) [%],Ki (human 5-HT1B receptor [4]) [nM],Ki (human 5-HT1D receptor [5]) [nM],EC50 (human 5-HT1D receptor [1]) [nM],Emax (human 5-HT1D receptor [1]) [%],Affinity (pKi ± SD) 5-HT1A (human 5-HT1A receptor [6]),Ki (human 5-HT1F receptor) [nM],EC50 (human 5-HT1B receptor [2]; [8]) [nM],Emax (human 5-HT1B receptor [2]) [%],"5-HT1A EMAX (%) (human 5-HT1A receptor [3]; WT receptor, normalized to basal (0%) and 10 μM 5-CT (100%))",Ki (human 5-HT1A receptor [6]) [nM]
"NCCc1c[nH]c2ccc(C(N)=O)cc12 [5-CT, 5-carboxamidotryptamine, reference compound]",101 ± 1,8.46 ± 0.18,100 ± 1,significant reduction,–,–,–,–,–,–,–,–,–,–,–,–
CN(C)[C@H]1CCc2c(cccc2-c2ccco2)C1 [(S)-FAT],–,–,–,–,490,92 ± 4,132,11.7,12,100 ± 2,7.48 ± 0.06,9330,117,102 ± 3,–,–
CN(C)[C@H]1CCc2c(cccc2-c2cccn2C)C1 [(S)-NMP],66 ± 6,–,54 ± 5,–,27.5,< 85,5.75,3.98,8.32,< 85,–,> 10000,11.2,–,70 ± 5,20.4
CN(C)[C@H]1CCc2c(cccc2-c2cccs2)C1 [(S)-TAT],–,–,–,–,23.4,91 ± 3,6.31,1.7,41.7,60 ± 3,–,> 10000,15.8,85 ± 4,–,6.17
